Measured values: patent US20240124466A1, “COMPOUNDS AND USE THEREOF FOR TREATMENT OF NEURODEGENERATIVE, DEGENERATIVE AND METABOLIC DISORDERS” (VOVA IDA THERAPEUTICS, INC., priority 2020, published 2024)

The compounds below were run on PK1 neuroblastoma cells exposed to TPrP (assay: cells). Conditions: Neuroblastoma cell, 96 h, read-out: TPrP EC50.

Structure (SMILES)	EC50
Cc1ccc(-c2nnc(-c3ccccc3)n2C)cc1S(=O)(=O)N1CCOCC1 [SR-28864, 4-((2-Methyl-5-(4-methyl-5-phenyl-4H-1,2,4-triazol-3-yl)phenyl)sulfonyl) morpholine]	> 1200 nM
Cc1ccc(-c2ccnc(-c3ccc(F)cc3)c2)cc1S(=O)(=O)N1CCOCC1 [SR-28924, 4-((5-(2-(4-Fluorophenyl)pyridin-4-yl)-2-methylphenyl)sulfonyl)morpholine]	40 nM
Cc1ccc(-c2cnn(-c3ccccc3)c2)cc1S(=O)(=O)N1CCOCC1 [SR-28925, 4-((2-Methyl-5-(1-phenyl-1H-pyrazol-4-yl)phenyl)sulfonyl)morpholine]	20 nM
Cc1ccc(-c2ccnc(-c3ccccc3)c2)cc1S(=O)(=O)N1CCOCC1 [SR-28984, 4-((2-Methyl-5-(2-phenylpyridin-4-yl)phenyl)sulfonyl)morpholine]	30 nM
Cc1ccc(-c2coc(-c3ccccc3)c2)cc1S(=O)(=O)N1CCOCC1 [SR-29044, 4-((2-Methyl-5-(5-phenylfuran-3-yl)phenyl)sulfonyl)morpholine]	> 1200 nM
Cc1ccc(-c2ccn(-c3ccccc3)c2)cc1S(=O)(=O)N1CCOCC1 [SR-29084, 4-((2-Methyl-5-(1-phenyl-1H-pyrrol-3-yl)phenyl)sulfonyl)morpholine]	600 nM
Cc1ccc(-c2csc(-c3ccccc3)c2)cc1S(=O)(=O)N1CCOCC1 [SR-29184, 4-((2-Methyl-5-(5-phenylthiophen-3-yl)phenyl)sulfonyl)morpholine]	> 1200 nM
Cc1ccc(-c2ccnc(N3CCOCC3)c2)cc1S(=O)(=O)N1CCOCC1 [SR-29224, 4-(4-(4-Methyl-3-(morpholinosulfonyl)phenyl)pyridin-2-yl)morpholine]	6 nM
Cc1ccc(-c2c[nH]cc2-c2ccccc2)cc1S(=O)(=O)N1CCOCC1 [SR-29285, 4-((2-Methyl-5-(4-phenyl-1H-pyrrol-3-yl)phenyl)sulfonyl)morpholine]	> 1200 nM
O=S(=O)(c1cc(-c2nnc(-c3ccccc3)[nH]2)ccc1C1CC1)N1CCOCC1 [SR-29784, 4-((2-Cyclopropyl-5-(5-phenyl-4H-1,2,4-triazol-3-yl)phenyl)sulfonyl) morpholine]	600 nM
Cc1ccc(-c2cn(-c3ccccc3)nn2)cc1S(=O)(=O)N1CCOCC1 [SR-30084, 4-((2-Methyl-5-(1-phenyl-1H-1,2,3-triazol-4-yl)phenyl)sulfonyl)morpholine]	30 nM
C[C@@H]1CN(S(=O)(=O)c2cc(-c3nnc(-c4ccccc4)[nH]3)ccc2C(F)(F)F)C[C@H](C)O1 [SR-30786, (cis)-2,6-dimethyl-4-((5-(5-phenyl-4H-1,2,4-triazol-3-yl)-2-(trifluoromethyl)phenyl)sulfonyl)morpholine]	> 1200 nM
O=S(=O)(c1cc(-c2nnc(-c3ccccc3)[nH]2)ccc1OC(F)(F)F)N1CCOCC1 [SR-31545, 4-((5-(5-Phenyl-4H-1,2,4-triazol-3-yl)-2-(trifluoromethoxy)phenyl)sulfonyl) morpholine]	> 1500 nM
Cc1ccc(-c2nnc(-c3ccccc3)[nH]2)cc1S(=O)(=O)NCc1cccnc1 [SR-31584, 2-Methyl-5-(5-phenyl-4H-1,2,4-triazol-3-yl)-N-(pyridin-3-ylmethyl)benzene sulfonamide]	90 nM
Cc1ccc(-c2nnc(-c3ccccc3)[nH]2)cc1S(=O)(=O)NCCN1CCOCC1 [SR-31824, 2-Methyl-N-(2-morpholinoethyl)-5-(5-phenyl-4H-1,2,4-triazol-3-yl)benzene sulfonamide]	> 1500 nM
Cc1ccc(-c2nnc(-c3ccccc3)[nH]2)cc1C(=O)N1CCOCC1 [SR-32044, (2-Methyl-5-(5-phenyl-4H-1,2,4-triazol-3-yl)phenyl)(morpholino)methanone]	~1500 nM
Cc1ccc(-c2nnc(-c3ccccc3)[nH]2)cc1S(=O)(=O)N1CCC(O)CC1 [SR-32045, 1-((2-Methyl-5-(5-phenyl-4H-1,2,4-triazol-3-yl)phenyl)sulfonyl)piperidin-4-ol]	> 1500 nM
Cc1ccc(-c2nnc(-c3ccccc3)[nH]2)cc1S(=O)(=O)N1CCN(CCO)CC1 [SR-32124]	15 nM
Cc1ccc(-c2nnc(-c3ccccc3)[nH]2)cc1S(=O)(=O)NCc1ccccn1 [SR-32144, 2-Methyl-5-(5-phenyl-4H-1,2,4-triazol-3-yl)-N-(pyridin-2-ylmethyl)benzene sulfonamide]	> 1500 nM
Cc1ccc(-c2nnc(-c3ccccc3)[nH]2)cc1S(=O)(=O)NC(C)(C)CO [SR-32184, N-(1-hydroxy-2-methylpropan-2-yl)-2-methyl-5-(5-phenyl-4H-1,2,4-triazol-3-yl)benzenesulfonamide]	180 nM

Structure (SMILES)	EC50
Cc1ccc(-c2nnc(-c3ccccc3)[nH]2)cc1S(=O)(=O)N1CCC(O)C1 (stereo not shown) [SR-32284, 1-((2-Methyl-5-(5-phenyl-4H-1,2,4-triazol-3-yl)phenyl)sulfonyl)pyrrolidin-3-ol]	550 nM
Cc1ccc(-c2nnc(-c3ccccc3)[nH]2)cc1S(=O)(=O)N1CCOCC1C (stereo not shown) [SR-32286, 3-Methyl-4-((2-methyl-5-(5-phenyl-4H-1,2,4-triazol-3-yl)phenyl)sulfonyl) morpholine]	110 nM
Cc1ccc(-c2nnc(-c3ccccc3)[nH]2)cc1S(=O)(=O)N1CCN(C2COC2)CC1 [SR-32324, 1-((2-Methyl-5-(5-phenyl-4H-1,2,4-triazol-3-yl)phenyl)sulfonyl)-4-(oxetan-3-yl)piperazine]	900 nM
Cc1ccc(-c2nnc(-c3ccccc3)[nH]2)cc1S(=O)(=O)N1C[C@H]2COC[C@H]2C1 [SR-32404, (3aR,6aS)-5-((2-Methyl-5-(5-phenyl-4H-1,2,4-triazol-3-yl)phenyl)sulfonyl) hexahydro-1H-furo[3,4-c]pyrrole]	800 nM
Cc1ccc(-c2nnc(-c3ccccc3)[nH]2)cc1S(=O)(=O)N1C2CCC1COC2 [SR-32704, 8-((2-Methyl-5-(5-phenyl-4H-1,2,4-triazol-3-yl)phenyl)sulfonyl)-3-oxa-8-azabicyclo[3.2.1]octane]	800 nM
Cc1ccc(-c2nnc(-c3ccccc3)[nH]2)cc1S(=O)(=O)N1CCC2(CC1)OCCO2 [SR-32705, 8-((2-Methyl-5-(5-phenyl-4H-1,2,4-triazol-3-yl)phenyl)sulfonyl)-1,4-dioxa-8-azaspiro[4.5]decane]	> 1500 nM
Cc1ccc(-c2nnc(-c3ccccc3)[nH]2)cc1S(=O)(=O)N1CCC2(CC1)OCCCO2 [SR-32744, 9-((2-Methyl-5-(5-phenyl-4H-1,2,4-triazol-3-yl)phenyl)sulfonyl)-1,5-dioxa-9-azaspiro[5.5]undecane]	> 1500 nM
Cc1ccc(-c2nnc(-c3ccccc3)[nH]2)cc1S(=O)(=O)NC1CCC2(CC1)OCCO2 [SR-32764, 2-Methyl-5-(5-phenyl-4H-1,2,4-triazol-3-yl)-N-(1,4-dioxaspiro[4.5]decan-8-yl)benzenesulfonamide]	> 1500 nM
Cc1ccc(-c2nnc(-c3ccccc3)[nH]2)cc1S(=O)(=O)N1CCC(O)(c2ccccc2)CC1 [SR-32784, 1-((2-Methyl-5-(5-phenyl-4H-1,2,4-triazol-3-yl)phenyl)sulfonyl)-4-phenyl piperidin-4-ol]	> 1500 nM
Cc1ccc(-c2nnc(-c3ccccc3)[nH]2)cc1S(=O)(=O)N1CCC(O)(c2cccnc2)CC1 [SR-32924, 1-((2-Methyl-5-(5-phenyl-4H-1,2,4-triazol-3-yl)phenyl)sulfonyl)-4-(pyridin-3-yl)piperidin-4-ol]	> 1500 nM
Cc1ccc(-c2nnc(-c3ccccc3)[nH]2)cc1S(=O)(=O)N1CCC2(CCCO2)CC1 [SR-32925, 8-((2-Methyl-5-(5-phenyl-4H-1,2,4-triazol-3-yl)phenyl)sulfonyl)-1-oxa-8-azaspiro[4.5]decane]	> 1500 nM
Cc1ccc(-c2nnc(-c3ccccc3)[nH]2)cc1S(=O)(=O)N1CC(O)C1 [SR-32944, 1-((2-Methyl-5-(5-phenyl-4H-1,2,4-triazol-3-yl)phenyl)sulfonyl)azetidin-3-ol]	15 nM
Cc1ccc(-c2nnc(-c3ccccc3)[nH]2)cc1S(=O)(=O)N1CCOCC1CO (stereo not shown) [SR-32945, (4-((2-Methyl-5-(5-phenyl-4H-1,2,4-triazol-3-yl)phenyl)sulfonyl)morpholin-3-yl)methanol]	300 nM
Cc1ccc(-c2nnc(-c3ccccc3)[nH]2)cc1S(=O)(=O)N1CCC2(CC1)OCc1ccccc12 [SR-32984, 1′-((2-Methyl-5-(5-phenyl-4H-1,2,4-triazol-3-yl)phenyl)sulfonyl)-3H-spiro[isobenzofuran-1,4′-piperidine]]	> 1500 nM
Cc1ccc(-c2nnc(-c3ccccc3)[nH]2)cc1S(=O)(=O)N1CCC(O)(Cc2ccccc2)CC1 [SR-33024, 4-Benzyl-1-((2-methyl-5-(5-phenyl-4H-1,2,4-triazol-3-yl)phenyl)sulfonyl) piperidin-4-ol]	> 1500 nM
Cc1ccc(-c2nnc(-c3ccccc3)[nH]2)cc1S(=O)(=O)N1CCCC2(C1)OCCO2 [SR-33045, 7-((2-Methyl-5-(5-phenyl-4H-1,2,4-triazol-3-yl)phenyl)sulfonyl)-1,4-dioxa-7-azaspiro[4.5]decane]	> 1500 nM
Cc1ccc(-c2nnc(-c3ccccc3)[nH]2)cc1S(=O)(=O)NCc1cncnc1 [SR-33344, 2-Methyl-5-(5-phenyl-4H-1,2,4-triazol-3-yl)-N-(pyrimidin-5-ylmethyl)benzene sulfonamide]	650 nM
Cc1ccc(-c2nnc(-c3ccccc3)[nH]2)cc1S(=O)(=O)N1CCN(CCc2ccncc2)CC1 [SR-33364, 1-((2-Methyl-5-(5-phenyl-4H-1,2,4-triazol-3-yl)phenyl)sulfonyl)-4-(2-(pyridin-4-yl)ethyl)piperazine]	5 nM
Cc1c(F)cc(-c2nnc(-c3ccccc3)[nH]2)cc1S(=O)(=O)N1CCN(CCO)CC1 [SR-33604, 2-(4-((3-Fluoro-2-methyl-5-(5-phenyl-4H-1,2,4-triazol-3-yl)phenyl)sulfonyl)piperazin-1-yl)ethan-1-ol]	90 nM
Cc1ccc(-c2nnc(-c3ccccc3)[nH]2)cc1S(=O)(=O)N1CCC(CCO)CC1 [SR-33725, 2-(1-((2-Methyl-5-(5-phenyl-4H-1,2,4-triazol-3-yl)phenyl)sulfonyl)piperidin-4-yl)ethan-1-ol]	> 1500 nM
